# Target: JAK1 (Homo sapiens (Human), UniProt P23458)
# Assay: Analysis of JAK1 activity inhibition ability (ADP-Glo Kinase Assay)
# Assay type: biochemical
# Details: JAK1 enzyme, ADP-Glo luminescence, ATP 250 uM, IRS-itide substrate, 30° C. 40 minutes; read-out: IC50
# Outline: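 JAK1 enzyme, IRS-itide substrate (40 ng/mL) and 250 uM ATP, both as prepared in kinase buffer (Tris-HCl pH 7.5, MgCl2, BSA, DTT), reacted with compound 40 min at 30 °C. ADP formed was detected by ADP-Glo luminescence; IC50 is the concentration giving 50% inhibition versus control.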
# Sequence of JAK1 (P23458 whole entry): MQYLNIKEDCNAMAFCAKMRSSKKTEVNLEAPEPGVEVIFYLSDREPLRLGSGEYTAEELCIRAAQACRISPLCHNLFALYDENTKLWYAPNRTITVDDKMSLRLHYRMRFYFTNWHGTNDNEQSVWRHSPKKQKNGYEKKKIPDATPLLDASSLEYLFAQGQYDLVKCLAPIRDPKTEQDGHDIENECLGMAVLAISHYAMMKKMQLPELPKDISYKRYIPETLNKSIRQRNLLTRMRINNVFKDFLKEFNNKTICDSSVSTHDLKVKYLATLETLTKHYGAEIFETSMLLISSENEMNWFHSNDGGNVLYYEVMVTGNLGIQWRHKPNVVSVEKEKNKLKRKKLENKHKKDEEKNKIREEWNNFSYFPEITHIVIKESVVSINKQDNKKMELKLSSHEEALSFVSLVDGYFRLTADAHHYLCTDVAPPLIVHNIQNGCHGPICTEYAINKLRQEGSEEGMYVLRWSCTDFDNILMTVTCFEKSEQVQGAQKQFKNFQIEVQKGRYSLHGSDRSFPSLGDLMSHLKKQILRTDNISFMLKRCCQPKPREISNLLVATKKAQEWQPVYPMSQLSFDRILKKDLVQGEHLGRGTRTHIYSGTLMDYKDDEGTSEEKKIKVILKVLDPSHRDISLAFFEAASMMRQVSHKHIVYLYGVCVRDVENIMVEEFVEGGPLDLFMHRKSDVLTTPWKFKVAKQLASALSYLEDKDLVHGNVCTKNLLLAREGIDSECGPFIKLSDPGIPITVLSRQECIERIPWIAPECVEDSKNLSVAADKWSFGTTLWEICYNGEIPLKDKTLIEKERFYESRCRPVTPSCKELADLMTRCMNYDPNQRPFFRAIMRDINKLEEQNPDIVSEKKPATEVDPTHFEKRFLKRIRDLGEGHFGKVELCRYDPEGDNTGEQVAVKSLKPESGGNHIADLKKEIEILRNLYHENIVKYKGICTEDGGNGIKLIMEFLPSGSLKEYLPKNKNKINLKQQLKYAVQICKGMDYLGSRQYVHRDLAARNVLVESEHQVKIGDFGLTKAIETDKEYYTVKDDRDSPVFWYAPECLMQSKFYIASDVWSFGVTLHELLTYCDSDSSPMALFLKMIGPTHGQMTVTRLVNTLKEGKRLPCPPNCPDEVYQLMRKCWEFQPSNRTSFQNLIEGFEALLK
row,Structure (SMILES),IC50
1,"N#CCCC(=O)N1C[C@H]2C[C@@H]1CN2c1cc(NC(=O)C2CC2)nc2[nH]ccc12 [Example 682, N-(4-((1R,4R)-5-(3-cyanopropanoyl)-2,5-diazabicyclo[2.2.1]heptan-2-yl)-1H-pyrrolo[2,3-b]pyridin-6-yl)cyclopropanecarboxamide]",> 200 nM
2,"N#CCC(=O)N1CCC=C(c2cc(NC(=O)C3CC3)nc3[nH]ccc23)C1 [Example 420, N-(4-(1-(2-cyanoacetyl)-1,2,5,6-tetrahydropyridin-3-yl)-1H-pyrrolo[2,3-b]pyridin-6-yl)cyclopropanecarboxamide]",20 to 200 nM
3,"CC(C)(C)OC(=O)N[C@H]1CCN(c2nc(NC(=O)C3CC3)nc3[nH]ccc23)C1 [Example 696, tert-butyl (S)-(1-(2-(cyclopropanecarboxamido)-7H-pyrrolo[2,3-d]pyrimidin-4-yl)pyrrolidin-3-yl)carbamate]",> 200 nM
4,"CN(CC(F)(F)F)S(=O)(=O)N1CC=C(c2cc(NC(=O)C3CC3)nc3[nH]ccc23)CC1 [Example 233, N-(4-(1-(N-methyl-N-(2,2,2-trifluoroethyl)sulfamoyl)-1,2,3,6-tetrahydropyridin-4-yl)-1H-pyrrolo[2,3-b]pyridin-6-yl)cyclopropanecarboxamide]",20 to 200 nM
5,"CC1CN(C(=O)Cc2cccc(F)c2)CC=C1c1cc(NC(=O)C2CC2)nc2[nH]ccc12 (centres unmarked) [Example 346, N-(4-(1-(2-(3-fluorophenyl)acetyl)-3-methyl-1,2,3,6-tetrahydropyridin-4-yl)-1H-pyrrolo[2,3-b]pyridin-6-yl)cyclopropanecarboxamide]",20 to 200 nM
6,"N#CCNC(=O)c1c(F)cc(-c2cc(NC(=O)C3CC3)nc3[nH]ccc23)cc1F [Example 529, N-(cyanomethyl)-4-(6-(cyclopropanecarboxamido)-1H-pyrrolo[2,3-b]pyridin-4-yl)-2,6-difluorobenzamide]",20 to 200 nM
7,"CCS(=O)(=O)N1CC(CC#N)(N2CC=C(c3cc(NC(=O)C4CC4)nc4[nH]ccc34)[C@H](C)C2)C1 [Example 627, (S)—N-(4-(1-(3-(cyanomethyl)-1-(ethylsulfonyl)azetidin-3-yl)-3-methyl-1,2,3,6-tetrahydropyridin-4-yl)-1H-pyrrolo[2,3-b]pyridin-6-yl)cyclopropanecarboxamide]",< 20 nM
8,"CC1CN(C(=O)c2cnccn2)CC=C1c1cc(NC(=O)C2CC2)nc2[nH]ccc12 (centres unmarked) [Example 343, N-(4-(3-methyl-1-(pyrazine-2-carbonyl)-1,2,3,6-tetrahydropyridin-4-yl)-1H-pyrrolo[2,3-b]pyridin-6-yl)cyclopropanecarboxamide]",20 to 200 nM
9,"O=C(Nc1cc(-c2ccc(NS(=O)(=O)N3CCS(=O)(=O)CC3)cc2)c2cc[nH]c2n1)C1CC1 [Example 229, N-(4-(4-((1,1-dioxidothiomorpholine)-4-sulfonamido)phenyl)-1H-pyrrolo[2,3-b]pyridin-6-yl)cyclopropanecarboxamide]",< 20 nM
10,"O=C(Nc1cc(-c2ccc(OS(=O)(=O)CCCF)cc2)c2cc[nH]c2n1)C1CC1 [Example 635, 4-(6-(cyclopropanecarboxamido)-1H-pyrrolo[2,3-b]pyridin-4-yl)phenyl 3-fluoropropane-1-sulfonate]",20 to 200 nM
11,"N#CCC(=O)N1C2C=C(c3cc(NC(=O)C4CC4)nc4[nH]ccc34)CC1CC2 (centres unmarked) [Example 257, N-(4-(8-(2-cyanoacetyl)-8-azabicyclo[3.2.1]oct-2-en-3-yl)-1H-pyrrolo[2,3-b]pyridin-6-yl)cyclopropanecarboxamide]",< 20 nM
12,"C[C@@H]1CN(C(=O)c2cccn(C)c2=O)CC=C1c1cc(NC(=O)C2CC2)nc2[nH]ccc12 [Example 405, (S)—N-(4-(3-methyl-1-(1-methyl-2-oxo-1,2-dihydropyridine-3-carbonyl)-1,2,3,6-tetrahydropyridin-4-yl)-1H-pyrrolo[2,3-b]pyridin-6-yl)cyclopropanecarboxamide]",> 200 nM
13,"CC1CN(C(=O)c2ccncc2O)CC=C1c1cc(NC(=O)C2CC2)nc2[nH]ccc12 (centres unmarked) [Example 377, N-(4-(1-(3-hydroxyisonicotinoyl)-3-methyl-1,2,3,6-tetrahydropyridin-4-yl)-1H-pyrrolo[2,3-b]pyridin-6-yl)cyclopropanecarboxamide]",> 200 nM
14,"CCS(=O)(=O)N1C2C=C(c3cc(NC(=O)C4CC4)nc4[nH]ccc34)CC1CC2 (centres unmarked) [Example 174, N-(4-(8-(ethylsulfonyl)-8-azabicyclo[3.2.1]oct-2-en-3-yl)-1H-pyrrolo[2,3-b]pyridin-6-yl)cyclopropanecarboxamide]",20 to 200 nM
15,"O=C(Nc1cc(C2=CCC(NS(=O)(=O)C(F)(F)F)CC2)c2cc[nH]c2n1)C1CC1 (centres unmarked) [Example 153, N-(4-(4-((trifluoromethyl)sulfonamido)cyclohex-1-en-1-yl)-1H-pyrrolo[2,3-b]pyridin-6-yl)cyclopropanecarboxamide]",20 to 200 nM
16,"O=C(Nc1cc(C2=CC3CCCC(C2)N3C(=O)c2ccc(Cl)nc2)c2cc[nH]c2n1)C1CC1 (centres unmarked) [Example 368, N-(4-(9-(6-chloronicotinoyl)-9-azabicyclo[3.3.1]non-2-en-3-yl)-1H-pyrrolo[2,3-b]pyridin-6-yl)cyclopropanecarboxamide]",< 20 nM

row,Structure (SMILES),IC50
1,"O=C(Nc1cc(C2=CCN(S(=O)(=O)N3CCOCC3)CC2)c2cc[nH]c2n1)C1CC1 [Example 234, N-(4-(1-(morpholinosulfonyl)-1,2,3,6-tetrahydropyridin-4-yl)-1H-pyrrolo[2,3-b]pyridin-6-yl)cyclopropanecarboxamide]",20 to 200 nM
2,"N#CCCCS(=O)(=O)N1C2CCC1CN(c1cc(NC(=O)C3CC3)nc3[nH]ccc13)C2 [Example 664, N-(4-(8-((3-cyanopropyl)sulfonyl)-3,8-diazabicyclo[3.2.1]octan-3-yl)-1H-pyrrolo[2,3-b]pyridin-6-yl)cyclopropanecarboxamide]",20 to 200 nM
3,"O=C(Nc1cc(-c2ccc(NS(=O)(=O)N3CCCC3)cc2)c2cc[nH]c2n1)C1CC1 [Example 218, N-(4-(4-(pyrrolidine-1-sulfonamido)phenyl)-1H-pyrrolo[2,3-b]pyridin-6-yl)cyclopropanecarboxamide]",< 20 nM
4,"O=C(Nc1cc(C2=CCC(NS(=O)(=O)CC3CC3)CC2)c2cc[nH]c2n1)C1CC1 (centres unmarked) [Example 161, N-(4-(4-((cyclopropylmethyl)sulfonamido)cyclohex-1-en-1-yl)-1H-pyrrolo[2,3-b]pyridin-6-yl)cyclopropanecarboxamide]",< 20 nM
5,"CCCS(=O)(=O)N[C@H]1CCN(c2nc(NC(=O)C3CC3)nc3[nH]ccc23)C1 [Example 670, (S)—N-(4-(3-(propylsulfonamido)pyrrolidin-1-yl)-7H-pyrrolo[2,3-d]pyrimidin-2-yl)cyclopropanecarboxamide]",> 200 nM
6,"N#CCC1(CS(=O)(=O)N2CC=C(c3cc(NC(=O)C4CC4)nc4[nH]ccc34)CC2)CC1 [Example 171, N-(4-(1-(((1-(cyanomethyl)cyclopropyl)methyl)sulfonyl)-1,2,3,6-tetrahydropyridin-4-yl)-1H-pyrrolo[2,3-b]pyridin-6-yl)cyclopropanecarboxamide]",20 to 200 nM
7,"O=C(Nc1cc(C2=CCC(NC3CCN(C(=O)c4ccnc(F)c4)CC3)CC2)c2cc[nH]c2n1)C1CC1 (centres unmarked) [Example 493, N-(4-(4-((1-(2-fluoroisonicotinoyl)piperidin-4-yl)amino)cyclohex-1-en-1-yl)-1H-pyrrolo[2,3-b]pyridin-6-yl)cyclopropanecarboxamide]",20 to 200 nM
8,"O=C(Nc1cc(-c2ccc(NS(=O)(=O)c3ccc(F)c(F)c3)cc2C(F)(F)F)c2cc[nH]c2n1)C1CC1 [Example 121, N-(4-(4-((3,4-difluorophenyl)sulfonamido)-2-(trifluoromethyl)phenyl)-1H-pyrrolo[2,3-b]pyridin-6-yl)cyclopropanecarboxamide]",20 to 200 nM
9,"O=C(Nc1nc(-c2ccc(NS(=O)(=O)c3cccc(F)c3)cc2)c2cc[nH]c2n1)C1CC1 [Example 192, N-(4-(4-((3-fluorophenyl)sulfonamido)phenyl)-7H-pyrrolo[2,3-d]pyrimidin-2-yl)cyclopropanecarboxamide]",< 20 nM
10,"N#CCC(=O)N1CC=C(c2cc(NC(=O)C3CC3)nc3[nH]ccc23)CC1 [Example 250, N-(4-(1-(2-cyanoacetyl)-1,2,3,6-tetrahydropyridin-4-yl)-1H-pyrrolo[2,3-b]pyridin-6-yl)cyclopropanecarboxamide]",< 20 nM
11,"O=C(Nc1cc(C2=CCN(C(=O)c3ccc(F)cc3)CC2)c2cc[nH]c2n1)C1CC1 [Example 279, N-(4-(1-(4-fluorobenzoyl)-1,2,3,6-tetrahydropyridin-4-yl)-1H-pyrrolo[2,3-b]pyridin-6-yl)cyclopropanecarboxamide]",20 to 200 nM
12,"O=C(Nc1cc(C2=CCC(NS(=O)(=O)C3CCC3)CC2)c2cc[nH]c2n1)C1CC1 (centres unmarked) [Example 165, N-(4-(4-(cyclobutanesulfonamido)cyclohex-1-en-1-yl)-1H-pyrrolo[2,3-b]pyridin-6-yl)cyclopropanecarboxamide]",< 20 nM
13,"N#CCC(=O)N1C2CCC1CN(c1nc(NC(=O)C3CC3)nc3[nH]ccc13)C2 [Example 688, (N-(4-(8-(2-cyanoacetyl)-3,8-diazabicyclo[3.2.1]octan-3-yl)-7H-pyrrolo[2,3-d]pyrimidin-2-yl)cyclopropanecarboxamide)]",20 to 200 nM
14,"CC1CC1C(=O)NC1CC=C(c2cc(NC(=O)C3CC3)nc3[nH]ccc23)CC1 (centres unmarked) [Example 244, N-(4-(6-(cyclopropanecarboxamido)-1H-pyrrolo[2,3-b]pyridin-4-yl)cyclohex-3-en-1-yl)-2-methylcyclopropane-1-carboxamide]",> 200 nM
15,"CC(C)(C)OC(=O)N1C2CCC1CN(c1nc(NC(=O)C3CC3)nc3[nH]ccc13)C2 [Example 695, tert-butyl 3-(2-(cyclopropanecarboxamido)-7H-pyrrolo[2,3-d]pyrimidin-4-yl)-3,8-diazabicyclo[3.2.1]octane-8-carboxylate]",20 to 200 nM
16,"O=C(NC1CC=C(c2cc(NC(=O)C3CC3)nc3[nH]ccc23)CC1)c1ccccc1 (centres unmarked) [Example 243, N-(4-(6-(cyclopropanecarboxamido)-1H-pyrrolo[2,3-b]pyridin-4-yl)cyclohex-3-en-1-yl)benzamide]",20 to 200 nM
